Assays:
PUMA/BBC3 = assay: Global proteome profiling in SUDHL5, PUMA/BBC3 abundance; format: cell-based, human; conditions: SUDHL5, 10 nM, 24 hours
Procedure: SUDHL5 cells (6M cells in 6 mL RPMI-1640 media supplemented with 10% FBS and 1x pen-strep) were treated with 0.1% DMSO, 10 nM TCIP3, 10 nM Neg1, 10 nM Neg2, or 250 nM dCBP1 (1000x stocks in DMSO for final 0.1% DMSO concentration) in 3 biologically independent replicates. The cells were washed twice with TBS (50 mM Tris, pH 8.5, and 150 mM NaCl) and then stored at −80 °C until use.
Lysis was performed by first thermally denaturing the samples in residual wash buffer for 5 min at 95 °C. Fresh Lysis Buffer (8 M urea, 150 mM NaCl, and 100 mM HEPES, pH 8.0, in MS-grade water) was then added, and the lysates were homogenized using needle ultrasonication and then normalized to 30 μg of 2 mg/mL by diluting with Lysis Buffer via a Bradford protein concentration assay (Bio-Rad 5000006) in technical duplicates. […]
Samples were then desalted using SOLAμ SPE HRP Peptide Desalting columns (Thermo 60209–001) with a Positive Pressure Manifold and all MS-grade reagents. […] The samples were then reconstituted in 0.1% FA in water and then analyzed by LC-MS/MS (see below).
The reconstituted desalted peptides were then analyzed using a nanoElute 2 UHPLC (Bruker Daltonics, Bremen, Germany) coupled to a timsTOF HT (Bruker Daltonics, Bremen, Germany) via a CaptiveSpray nano-electrospray source. […]

SUDHL5 cells = assay: RNA-seq differential genes in SUDHL5; format: cell-based, human; conditions: SUDHL5, 1 nM, 30 min, 1, 2 and 4 hours; adj. P ≤ 0.05, |log2(fold change)| ≥ 0.5
Procedure: Cells were plated at 1M/mL and harvested in TRIsure (Bioline 38033). RNA was extracted using Direct-zol RNA MicroPrep columns (Zymo R2062) treated with DNAseI. cDNA was prepared (Meridian Bioscience BIO-65054) and used for qPCR (Meridian Bioscience BIO-94050) using an AppliedBiosystems QuantStudio 6Pro. Primer sequences were the following:
For sequencing library preparation, rRNA was depleted (NEB E7400) and total RNA prepared into paired-end libraries (NEB E7765) and indexed (NEB E7335). Library size distributions were confirmed using an Agilent Bioanalyzer and High Sensitivity DNA reagents (Agilent 5067) and concentrations determined by qPCR. […]
Raw reads were checked for quality using fastqc (https://www.bioinformatics.babraham.ac.uk/projects/fastqc/) and trimmed from adapters using cutadapt[111] using parameters cutadapt -a […] -b […] --nextseq-trim=20 --minimum-length 1. Transcripts were quantified using kallisto[112] against the human Gencode v33 indexed transcriptome and annotations. […] Re-processed published datasets from the Sequence Read Archive (SRA) were the following: TCIP1 – SRX20228454, SRX20228455, SRX202284546, SRX20228457, SRX20228458, SRX20228459, SRX20228448, SRX20228449, SRX20228450; CDK-TCIP1 – SRX22117221, SRX22117222, SRX22117223, SRX22117224, SRX22117225, SRX22117226, SRX22117227, SRX22117228, SRX22117229).

SMILES: CNC(=O)COc1cc2cc(Nc3nc(N4CCC(C(=O)N5CCN(CCC(=O)N6CCC(n7nc(N8CCCc9cc(-c%10cnn(C)c%10)c(C(F)F)cc98)c8c7CCN(C(=O)NC)C8)CC6)CC5)CC4)ncc3Cl)cc(OC)c2n(C)c1=O [TCIP3]
- PUMA/BBC3 log2(TCIP3 / DMSO fold change) (PUMA/BBC3): 0.72
- number of genes decreased (SUDHL5 cells): 2,126
- number of genes induced (SUDHL5 cells): 1,510

Reference: article doi:10.1101/2025.03.14.643404, “A Bivalent Molecular Glue Linking Lysine Acetyltransferases to Oncogene-induced Cell Death” (bioRxiv, 2025)
